In patent publication US20210355105A1, “REGULATOR OF NITROGEN-CONTAINING HETEROAROMATIC DERIVATIVES, PREPARATION METHOD THEREFOR AND USE THEREOF” (Jiangsu Hansoh Pharmaceutical Group Co., Ltd., priority 2018, published 2021):

Tests used:
[1] = test system: human pancreatic cancer cell MiaPaca 2 xenograft; assay: Tumor inhibition test on MiaPaca 2 xenograft model; assay type: in vivo, Balb/c nude mice; conditions: 6 mg/kg QD × 3 w, intragastric
Procedure: Balb/c nude mice were used as test animals. In vivo pharmacodynamic test was carried out on human pancreatic cancer cell MiaPaca 2 xenograft (CDX) model to evaluate the anti-tumor effect of the test compounds.
MiaPaca 2 cells were taken from the cell bank and thawed. The cells were added to the DMEM medium (containing 10% FBS, 1% Glu and 1% P/S), and incubated in the CO2 incubator (the temperature of the incubator was 37° C., and the CO2 concentration was 5%). After the cells covered 80-90% of the bottom of the culture flask, the cells were passaged. After passage, the cells continued to be incubated in the CO2 incubator. The process was repeated until the number of cells met the inoculation requirement of the in vivo pharmacodynamic test. The cells in logarithmic growth phase were collected, and counted by the automatic cell counter. According to the counting results, the cells were resuspended with PBS and Matrigel (volume ratio: 1:1) to obtain a cell suspension (density: 8×10^7/ml), which was placed in an ice box for later use.
Female Balb/c nude mice (6-8 weeks old, body weight: about 18-22 grams) were used as test animals. The mice were maintained in an environment free of special pathogens and in a single ventilated cage (five mice per cage). All cages, bedding and water were disinfected before use. All animals had free access to standard certified commercial laboratory animal diets. The nude mice were marked with a disposable universal ear tag for rats and mice before the test. The skin of the inoculation site was disinfected with 75% medical alcohol before the inoculation. Each mouse was inoculated with 0.1 ml of MiaPaca 2 tumor cells (containing 8*10^6 cells) subcutaneously on the right back. When the average tumor volume reached 100 to 200 mm^3, administration was carried out. The test compounds were administered intragastrically daily. The tumor volume (mm^3) was measured with the vernier caliper twice a week. The tumor volume calculation formula: V=0.5*D*d*d, wherein D and d represent the long diameter and short diameter of the tumor, respectively. The anti-tumor efficacy was determined by dividing the average tumor increase volume of the compound-treated animals by the average tumor increase volume of the untreated animals. Tumor growth inhibition rate calculation formula: […]
All animals were euthanized after the experiment.

[2] = target: T1, SHP-2 full-length protein (Homo sapiens, UniProt Q06124); assay: Inhibition of SHP-2 kinase activity (Homogeneous Full Length SHP-2 Assay Kit); assay type: biochemical; conditions: relative IC50, full-length SHP-2 with activating peptide
T1 construct: purchased BPS Bioscience 79330
T1 sequence (Q06124 1-593): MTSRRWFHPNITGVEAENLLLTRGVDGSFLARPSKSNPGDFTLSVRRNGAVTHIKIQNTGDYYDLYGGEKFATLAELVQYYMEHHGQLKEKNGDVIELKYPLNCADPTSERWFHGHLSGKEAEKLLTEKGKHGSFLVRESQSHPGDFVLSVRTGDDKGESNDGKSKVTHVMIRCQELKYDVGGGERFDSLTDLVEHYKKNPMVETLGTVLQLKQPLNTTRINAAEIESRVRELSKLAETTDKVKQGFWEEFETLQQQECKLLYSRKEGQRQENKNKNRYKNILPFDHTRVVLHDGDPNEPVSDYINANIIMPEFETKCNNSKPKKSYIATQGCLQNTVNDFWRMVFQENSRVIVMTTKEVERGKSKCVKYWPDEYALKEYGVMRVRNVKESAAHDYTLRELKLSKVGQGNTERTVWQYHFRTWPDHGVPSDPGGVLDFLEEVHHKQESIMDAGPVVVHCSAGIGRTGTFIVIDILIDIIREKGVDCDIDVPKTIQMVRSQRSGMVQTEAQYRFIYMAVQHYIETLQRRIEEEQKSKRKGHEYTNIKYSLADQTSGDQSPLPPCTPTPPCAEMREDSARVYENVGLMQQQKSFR
Procedure: The objective of this test is to determine the inhibitory effect of the compounds on SHP-2 full-length protein allosteric activity.
Experimental method: Homogeneous Full Length SHP-2 Assay Kit (BPS Bioscience, #79330) was used to determine the in vitro SHP-2 activity. First, 18 μL of Master Mix was added to a 96-well low adsorption microplate (NUNC, #267342), i.e., the reaction buffer with a final concentration of 1× comprised 0.5 μM SHP-2 activating Peptide and 5 mM DTT. After centrifugation, 5 μL of test compound/DMSO was added to each well (the final DMSO content was 1%, V/V, the test compound was dissolved in DMSO to 1 mM, a three-fold serial dilution was carried out to obtain ten concentrations, the final concentration of the reaction system ranged from 1 μM to 0.05 nM). SHP-2 was diluted in the 1× reaction buffer to a final concentration of 0.06 nM, and the resulting solution was added to the reaction microplate (2 μL per well). Full activity control (compound only with DMSO) and full inhibition control (no SHP-2) were set up on the reaction plate. After centrifugation, the reaction mixture was incubated at room temperature for 60 minutes.
After completion of the incubation, 25 μL of Substrate solution, which comprised Substrate with a final concentration of 10 μM and 5 mM DTT, was added to each well. After centrifugation, the reaction mixture was incubated at room temperature for 30 minutes. After completion of the reaction, readings were measured on the Synergy H1 full-function microplate reader (BioTek) (excitation wavelength: 340 nm, emission wavelength: […], gain value: 75).
The IC50 value of the test compounds was calculated by fitting the percentage inhibition rate and data of ten concentrations to a four-parameter nonlinear logic formula with GraphPad prism.

hERG potassium channel = target: T2, hERG potassium channel (Homo sapiens, UniProt Q12809); assay: Inhibitory activity on hERG potassium channel (Qpatch, CHO-hERG cells); assay type: cell-based; conditions: six concentrations up to 40 μM, read-out: hERG (inhibitory effect on hERG current)
T2 construct: expressed in transfected cells; host or cells: CHO-hERG cells
T2 sequence (Q12809 whole entry): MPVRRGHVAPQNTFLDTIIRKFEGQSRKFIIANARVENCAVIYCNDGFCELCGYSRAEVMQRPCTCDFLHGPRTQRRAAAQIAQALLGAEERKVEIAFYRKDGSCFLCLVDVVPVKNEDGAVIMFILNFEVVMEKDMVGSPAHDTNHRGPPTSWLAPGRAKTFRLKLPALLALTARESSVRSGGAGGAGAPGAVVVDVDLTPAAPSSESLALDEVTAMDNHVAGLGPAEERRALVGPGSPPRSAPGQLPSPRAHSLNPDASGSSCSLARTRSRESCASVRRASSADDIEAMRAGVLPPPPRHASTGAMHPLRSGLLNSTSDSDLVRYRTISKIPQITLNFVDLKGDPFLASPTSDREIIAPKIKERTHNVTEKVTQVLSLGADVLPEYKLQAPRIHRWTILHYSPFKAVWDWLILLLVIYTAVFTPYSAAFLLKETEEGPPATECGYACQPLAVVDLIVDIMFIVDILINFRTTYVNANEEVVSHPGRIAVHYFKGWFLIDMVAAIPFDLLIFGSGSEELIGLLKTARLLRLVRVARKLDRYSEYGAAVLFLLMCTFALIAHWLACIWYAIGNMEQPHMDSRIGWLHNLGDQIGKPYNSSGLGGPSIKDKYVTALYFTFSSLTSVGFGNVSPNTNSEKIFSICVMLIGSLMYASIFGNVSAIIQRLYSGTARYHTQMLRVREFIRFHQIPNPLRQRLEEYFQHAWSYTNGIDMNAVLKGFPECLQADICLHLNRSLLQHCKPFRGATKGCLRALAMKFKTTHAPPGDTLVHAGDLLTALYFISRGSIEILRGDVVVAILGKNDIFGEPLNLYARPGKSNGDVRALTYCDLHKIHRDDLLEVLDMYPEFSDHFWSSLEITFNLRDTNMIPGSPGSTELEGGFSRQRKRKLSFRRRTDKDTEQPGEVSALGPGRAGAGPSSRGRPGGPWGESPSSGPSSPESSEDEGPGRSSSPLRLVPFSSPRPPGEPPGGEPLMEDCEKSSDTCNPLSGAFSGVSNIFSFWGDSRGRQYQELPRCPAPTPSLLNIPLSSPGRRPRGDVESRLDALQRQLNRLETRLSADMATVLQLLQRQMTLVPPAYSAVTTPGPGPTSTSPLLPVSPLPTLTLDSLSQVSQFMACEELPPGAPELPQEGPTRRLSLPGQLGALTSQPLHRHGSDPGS
Procedure: 8.1.1 CHO-hERG cells were cultured in a 175 cm^2 culture flask. When the cells were grown to a density of 60 to 80%, the culture solution was removed, and the cells were washed once with 7 mL of PBS, and then 3 mL of Detachin was added for digestion of the cells.
8.1.2 After the digestion was complete, the cells were neutralized by adding 7 mL of the culture solution and then centrifuged. The supernatant was removed, and then 5 mL of the culture solution was added for resuspension to ensure a cell density of 2-5×10^6 cells/mL.
The single-cell high-impedance sealing and whole-cell pattern formation processes were both completed automatically by the Qpatch instrument. After the whole-cell recording pattern was obtained, the cells were clamped at −80 millivolts. A pre-voltage of −50 millivolts was applied for 50 milliseconds prior to the application of a depolarizing stimulus of +40 millivolts for 5 seconds, and then the cells were repolarized to −50 millivolts and maintained for 5 seconds, and then returned back to −80 millivolts. This voltage stimulation was applied every 15 seconds, and data were recorded for 2 minutes, and thereafter the extracellular fluid was administered and data were recorded for 5 minutes, and then the administration process was started. The compound was administered from the lowest test concentration, and 2.5 minutes were given for each test concentration. After all the concentrations of the compound were administered, […] Cisapride as a positive control compound was administered. At least three cells (n≥3) were tested for each concentration.
8.4.1 20 mM compound mother solution was diluted with the extracellular fluid. 5 μL of the 20 mM compound mother solution was diluted 500 times to 40 μM by adding 2495 μL of the extracellular fluid, and then 3-fold serial dilutions were performed sequentially in the extracellular fluid containing 0.2% DMSO to obtain a final concentration to be tested.
8.4.2 The highest test concentration was 40 μM, and there were six concentrations in total, i.e., 40, 13.33, 4.44, 1.48, 0.49, and […], respectively.
The experimental data were analyzed by XLFit software.

NCI-H358 cells = assay: Proliferation inhibition of NCI-H358 cells (CellTiter-Glo); assay type: cell-based; conditions: Homo sapiens, NCI-H358, 72 h; 3 days incubation
Procedure: Experimental method: 3000 cells (90 μL of cell suspension) were inoculated to each well of a 96-well cell culture plate (Corning, #3610). The culture plate was incubated in an incubator overnight (37° C., 5% CO2). On the next day, 10 μL of gradient dilutions of the test compound solution (the final DMSO content was 0.2%, V/V, the final concentration of the reaction system ranged from 10 μM to 4.5 nM) was added to each well of the culture plate. At the same time, full activity control (compound only with DMSO) and full inhibition control (no cells) were set up on the reaction plate. The culture plate was incubated in the incubator for 3 days (37° C., 5% CO2).
After completion of the incubation, 50 μL of CellTiter-Glo reagent was added to each well of the cell culture plate, which was left to stand at room temperature for 10 minutes. The chemiluminescence signal value was measured in the Synergy H1 full-function microplate reader (BioTek). […] The IC50 value of the test compounds was calculated by fitting the percentage inhibition rate and data of eight concentrations to a four-parameter nonlinear logic formula with GraphPad prism.
The IC50 value was calculated by fitting the data of different concentrations and corresponding percentage inhibition rates to a four-parameter nonlinear logic formula with GraphPad prism.

[3] = Pharmacokinetics assay in rats, oral administration; assay type: in vivo; conditions: rat; male SD rats, oral 5 mg/kg, plasma
Procedure: SD rats were used as test animals.
(§1) 5 g of hydroxyethyl cellulose (HEC, CMC-Na, viscosity: 800-1200 Cps) was dissolved in 1000 mL of purified water, and 10 g of Tween80 was added. The solution was mixed well to form a clear solution.
The solution was shaked well and subjected to ultrasound for 15 minutes to obtain a colorless and clear solution with a concentration of 0.5 mg/mL.
After an overnight fast, male SD rats (3 rats per group) were administrated orally with the test compounds at an administration dose of 5 mg/kg and an administration volume of 10 mL/kg.
0.2 mL of blood was taken from jugular vein before administration and at 0.5 hour, 1.0 hour, 2.0 hours, 4.0 hours, 6.0 hours, 8.0 hours and 24.0 hours after administration. The blood samples were stored in EDTA-2K tubes, and centrifuged for 6 minutes at 6000 rpm, at 4° C. to separate the blood plasma. The plasma samples were stored at −80° C. The rats were fed four hours after administration.

[4] = Pharmacokinetics assay in mice, oral administration; assay type: in vivo; conditions: mouse; male Balb/c mice, oral 5 mg/kg, plasma
Procedure: Balb/c mice were used as test animals.
as §1, with “solution. […] The solution was subjected to ultrasound for 10 minutes to obtain a colorless and clear solution with a concentration of 0.5 mg/mL.” for “solution.”
After an overnight fast, male Balb/c mice were administrated orally with the test compounds at an administration dose of 5 mg/kg and an administration volume of 10 mL/kg.
Blood was taken before administration and at 0.25 hour, 0.5 hour, 1 hour, 2 hours, 4 hours, 6 hours, 8 hours and 24 hours after administration. The blood samples were stored in EDTA-2K tubes, and centrifuged for 6 minutes at 6000 rpm, at 4° C. to separate the blood plasma. The plasma samples were stored at −80° C. The mice were fed four hours after administration.

Row | IC50 [2] | IC50 (NCI-H358 cells) | AUC(0-inf) [3] | Cmax [3] | MRT [3] | Tmax [3] | half-life [3] | AUC(0-inf) [4] | Cmax [4] | MRT [4] | Tmax [4] | half-life [4] | SMILES | Tumor volume (Mean ± SD) Day 0 [1] | TGI Day 21 [1] | Tumor volume (Mean ± SD) Day 21 [1] | ΔT/ΔC Day 21 [1] | IC50 (hERG potassium channel)
1 | 0.00928 µM | 0.0134 µM | – | – | – | – | – | – | – | – | – | – | Cc1nc(Sc2ccnc(N)c2Cl)c(N)nc1N1CCC2(CC1)Cc1ccccc1[C@H]2N [Example 96, (S)-1′-(6-amino-5-((2-amino-3-chloropyridin-4-yl)thio)-3-methylpyrazin-2-yl)-1,3-dihydrospiro[indene-2,4′-piperidin]-1-amine] | 170 ± 28 (171 ± 25) mm^3 | 97.76% | 183 ± 70 mm^3 | 2.24% | 5.24 µM
2 | 0.00929 µM | 0.0799 µM | 6250 ng·h/mL | 666 ng/mL | 5.67 h | 1 h | 4.12 h | 5980 ng·h/mL | 996 ng/mL | 5.15 h | 0.5 h | 3.92 h | Nc1nc(N2CCC3(CC2)Cc2ncccc2[C@H]3N)c(F)nc1Sc1ccnc(N)c1Cl [Example 180, (S)-1′-(6-Amino-5-((2-amino-3-chloropyridin-4-yl)thio)-3-fluoropyrazin-2-yl)-5,7-dihydrospiro[cyclopenta[b]pyridine-6,4′-piperidin]-5-amine] | – | – | – | – | –

Row | SMILES | IC50 [2] | IC50 (NCI-H358 cells) | AUC(0-inf) [3] | Cmax [3] | MRT [3] | Tmax [3] | half-life [3] | AUC(0-inf) [4] | Cmax [4] | MRT [4] | Tmax [4] | half-life [4] | Tumor volume (Mean ± SD) Day 0 [1] | TGI Day 21 [1] | Tumor volume (Mean ± SD) Day 21 [1] | ΔT/ΔC Day 21 [1] | IC50 (hERG potassium channel)
3 | Nc1nc(N2CCC3(CC=C(C4CC4)[C@H]3N)CC2)cnc1Sc1ccnc(N)c1Cl [Example 143, (S)-8-(6-amino-5-((2-amino-3-chloropyridin-4-yl)thio)pyrazin-2-yl)-2-cyclopropyl-8-azaspiro[4.5]dec-2-en-1-amine] | 0.0038 µM | 0.0233 µM | – | – | – | – | – | – | – | – | – | – | 166 ± 27 (168 ± 32) mm^3 | 95.64% | 196 ± 62 mm^3 | 4.36% | 6.17 µM
